Converted amounts (≈) assume the structure as drawn.
How the values were obtained:
male mice = conditions: 40 to 80 mg/kg
Experimental: To study the pharmacological properties on the central nervous system, doses of 40 to 80 mg per kilogram of body weight were used. The choice of doses was based on safety criteria governing the use of medicines.
The neuropharmacological effects were studied in male mice of undefined strain which had reached sexual maturity. The mice, weighing 18 to 20 g, were given a solution of the drug intraabdominally. The neuropharmacological effects were studied on the basis of changes in the natural orientation reflex, in induced aggressiveness, and in muscle tone. The change in the natural sense of orientation was recorded according to the current method. To study the effect of the drug on induced aggressiveness, the electrical stimulation method (pain caused by electric current) was used.
The change in muscle tone was measured by means of the "pivot pin" method.

Hexenalum-induced sleep = conditions: 10 to 30 mg/kg, 15 min before Hexenalum 80 mg/kg
Experimental: The effect of the drug on the length of Hexenalum-induced anesthesia was studied, i.e., the drug was administered in doses of 10 to 30 mg per kilogram of body weight, 15 minutes before the administration of the Hexenalum solution in a dose of 80 mg/kg.

[1] = test system: brain ischemia (carotid tying) in mice; experiment: Example 4: carotid tying and release in mice; type: in vivo
Experimental: We performed experiments on 50 mice of the pyramid by tying the carotid under light anesthesia. After 7 minutes, we released the tie and restored the blood circulation in the ischemic area.

[2] = Summary of experiments on phthaloylhydrazide derivatives; type: in vivo
[3] = test system: leukocytes in ischemic tissue; surviving animals; conditions: intramuscular injections, p>0.05

Question: For `Nc1cccc2c(=O)[nH][nH]c(=O)c12` [5-aminophthaloylhydrazide, 5-amino-2,3-dihydrophthalazine-1,2 dione], which pain threshold (male mice) is on record?
Answer: Its pain threshold is “nor did it cause changes in muscle tone or modifications in the pain threshold”.

Question: And the natural orientation reflex (male mice; intraabdominal)?
Answer: Its natural orientation reflex is “did not suppress the natural orientation reflex”.

Question: What about the muscle tone (male mice; pivot pin method) of the same compound?
Answer: The muscle tone was “nor did it cause changes in muscle tone”.

Question: And the “extension of Hexenalum-induced sleep” value (Hexenalum-induced sleep)?
Answer: Its value is “did not cause a noteworthy extension of the Hexenalum-induced sleep”.

Question: What about the “percentage of surviving animals” value ([1]; 30 mg/kg, p>0.05) of the same compound?
Answer: The value was “did not increase”.

Question: What about the “cases with symptoms of neurological impairment” value ([1]; 100 mg/kg intramuscular) of the same compound?
Answer: The value was 3 cases.

Question: And the “effectiveness of intramuscular administration” value ([1]; 100 mg/kg intramuscular)?
Answer: Its value is “the intramuscular administration of the drug was not effective”.

Question: What about the surviving animals ([1]; 100 mg/kg intramuscular) of the same compound?
Answer: The surviving animals was “Six out of 10”.

Question: And the “cases without symptoms of neurological impairment” value ([1]; 100 mg/kg intravenous)?
Answer: The value was 8 cases.

Question: And the surviving animals ([1]; 100 mg/kg intravenous)?
Answer: The surviving animals was 9 out of 10.

Question: And the “cases with symptoms of damage to the central nervous system” value ([1]; 150 mg/kg)?
Answer: Its value is 2 cases.

Question: What about the surviving animals ([1]; 150 mg/kg) of the same compound?
Answer: The surviving animals was 80%.

Question: What about the “survival rate on further dose increase” value ([1]; above 100 mg/kg) of the same compound?
Answer: The value was “did not lead to a reliable increase in the survival rate”.

Question: What about the “surviving animals without symptoms of neurological impairment” value ([1]; two administrations of 100 mg/kg, 12-hour interval) of the same compound?
Answer: Its value is 9 animals.

Question: What about the “pharmacological activity, anti-hypoxic and defensive action” value ([2]; doses of 10 to 300 mg/kg) of the same compound?
Answer: The value was “possess a pronounced pharmacological activity”.

Question: What about the therapeutic effects ([2]; in vivo) of the same compound?
Answer: The therapeutic effects was “major therapeutic effects”.

Question: What about the “percentage of surviving animals” value [3] of the same compound?
Answer: Its value is 60%.

Question: What about the clinical symptoms (generalized psoriasis; 20 mg/kg for 10 days) of the same compound?
Answer: Its clinical symptoms is “elimination of the itching and a lessening of the skin symptoms”.

Question: What about the skin clearance (generalized psoriasis; after a 30-day treatment) of the same compound?
Answer: The skin clearance was “the skin was completely clear”.

Question: What about the “number of neutrophils in the epidermal cells” value (generalized psoriasis; biopsy samples) of the same compound?
Answer: Its value is “considerable drop in the number of neutrophils in the epidermal cells”.

Question: And the remission period (generalized psoriasis; human, in vivo)?
Answer: Its remission period is 8 months.

Question: And the “skin symptoms after topical application” value (generalized psoriasis; solution of the drug in 15% DMSO)?
Answer: Its value is “led quickly to the disappearance of the skin symptoms, including the pustules”.

Question: What about the solubility (physchem; pH 6.5) of the same compound?
Answer: The solubility was 2 mM (≈ 354 µg/mL).

Question: And the solubility (physchem; pH 7.4)?
Answer: Its solubility is 12 mM (≈ 2130 µg/mL).
